Assay results reported in paper PMC7508416 (Chemical research in toxicology, 2020).
Where two headings read alike, the source gives them in different places.

Key:
[1] = linear regression
[2] = for % Depletion: after 60 min (Eq. 1)
[3] = cited from earlier work
[4] = gavage of a technical mixture containing 35% 2IPPDPP; cited from earlier work
[5] = cited from earlier work; remark: listed apart in the source
[6] = design: species or system human; conditions: pooled urine of children aged 3-6; tentative, exact mass match
[7] = 1 μM, s9 & sulfatase & glucuronidase
[8] = 10 μM, s9 & sulfatase & glucuronidase

Compound: CC(C)(C)c1ccc(OP(=O)(Oc2ccccc2)Oc2ccccc2)cc1 [4tBPDPP, 4-tert-butylphenyl diphenyl phosphate]
- Depletion rate, slope, first-order kinetics ([1]; 1 μM dose): −0.013 ln[nmol]/min/mg protein
- Depletion rate, slope, zero-order kinetics ([1]; 1 μM dose): −0.031 nmol/min/mg protein
- Depletion rate, slope, first-order kinetics ([1]; 10 μM dose): −0.0013 ln[nmol]/min/mg protein
- Depletion rate, slope, zero-order kinetics ([1]; 10 μM dose): −0.082 nmol/min/mg protein
- Percentage of Initial Parent Administration (Mean ± Std Dev): parent compound ([2]; 1 μM, Abiotic Control): 84 ± 8%
- % Depletion ([2]; 1 μM, Abiotic Control): 9%
- Percentage of Initial Parent Administration (Mean ± Std Dev): parent compound ([2]; 1 μM, Heat-inactivated s9): 81 ± 6%
- % Depletion ([2]; 1 μM, Heat-inactivated s9): 12%
- Percentage of Initial Parent Administration (Mean ± Std Dev): parent compound ([2]; 1 μM, s9): 59 ± 11%
- Percentage of Initial Parent Administration (Mean ± Std Dev): parent compound ([2]; 1 μM, s9 & glucuronidase): 56 ± 5%
- % Depletion ([2]; 1 μM, s9 & glucuronidase): 43%
- Percentage of Initial Parent Administration (Mean ± Std Dev): parent compound ([2]; 1 μM, s9 & sulfatase): 61 ± 5%
- Percentage of Initial Parent Administration (Mean ± Std Dev): parent compound [2, 7]: 60 ± 6%
- % Depletion [2, 7]: 39%
- % Depletion ([2]; 1 μM, s9 & sulfatase): 39%
- % Depletion ([2]; 1 μM, s9): 41%
- Percentage of Initial Parent Administration (Mean ± Std Dev): parent compound ([2]; 1 μM, unprocessed spike): 92 ± 4%
- Percentage of Initial Parent Administration (Mean ± Std Dev): Total ([2]; 1 μM, unprocessed spike, parents plus quantified metabolites): 100 ± 4%
- Percentage of Initial Parent Administration (Mean ± Std Dev): parent compound ([2]; 10 μM, Abiotic Control): 81 ± 1%
- % Depletion ([2]; 10 μM, Abiotic Control): 8%
- Percentage of Initial Parent Administration (Mean ± Std Dev): parent compound ([2]; 10 μM, Heat-inactivated s9): 79 ± 11%
- % Depletion ([2]; 10 μM, Heat-inactivated s9): 12%
- Percentage of Initial Parent Administration (Mean ± Std Dev): parent compound ([2]; 10 μM, s9): 83 ± 2%
- Percentage of Initial Parent Administration (Mean ± Std Dev): parent compound ([2]; 10 μM, s9 & glucuronidase): 72 ± 5%
- % Depletion ([2]; 10 μM, s9 & glucuronidase): 23%
- Percentage of Initial Parent Administration (Mean ± Std Dev): parent compound ([2]; 10 μM, s9 & sulfatase): 73 ± 9%
- Percentage of Initial Parent Administration (Mean ± Std Dev): parent compound [2, 8]: 71 ± 6%
- % Depletion [2, 8]: 25%
- % Depletion ([2]; 10 μM, s9 & sulfatase): 23%
- % Depletion ([2]; 10 μM, s9): 12%
- Percentage of Initial Parent Administration (Mean ± Std Dev): parent compound ([2]; 10 μM, unprocessed spike): 89 ± 1%
- Percent depletion lower than that of TPHP ([2]; human, pH 7.4): 30–45%
- Parent converted to DPHP ([3]; 2 μM, 100-min incubation): 41%

Compound: C=C(C)c1ccccc1OP(=O)(Oc1ccccc1)Oc1ccccc1 [mono-(o-isopropenylphenyl)-diphenyl phosphate]
- Detection in rabbit bile [4]: detected

Compound: O=P(O)(Oc1ccccc1)Oc1ccccc1 [DPHP, diphenyl phosphate]
- Geometric mean urinary concentration [5]: around 10 nM

Compound: hydroxy-o-isopropylphenyl diphenyl phosphate [Hydroxylated 2IPPDPP]
- Detection in human urine samples (number of samples out of 9) [6]: not detected

Compound: CC(C)c1ccccc1OP(=O)(Oc1ccccc1C(C)C)Oc1ccccc1C(C)C [T2IPPP]
- DPHP formation following incubation ([3]; ref Strobel et al., 2018): not detected
